Measurements published in ChEMBL document CHEMBL1201862, “PubChem BioAssay data set” (2004).
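Step 1: Grow cells in 96-well plates. Step 2: Expose to compound for 48 hours at 5 concentrations. Step 3: Interpolate endpoints linearly; if unreached, use highest concentration. GI50 = concentration required for 50% inhibition of growth.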 Active and inactive are the calls of the source. Cut-off read from the data, not from the text of the source: active = GI50 up to about 1.1 µM and inactive = higher.

Tests used:
Assay in all cases: growth of human tumour cells (NCI), 48 h
SK-MEL-2 = system: SK-MEL-2
SNB-19 = system: SNB-19
RPMI-8226 = system: RPMI-8226
SNB-75 = system: SNB-75
OVCAR-8 = system: OVCAR-8
SN12C = system: SN12C
KM12 = system: KM12
HOP-92 = system: HOP-92
K562 = system: K562
COLO 205 = system: COLO 205
SF-539 = system: SF-539
786-0 = system: 786-0
HT-29 = system: HT-29
RXF 393 = system: RXF 393
NCI-H522 = system: NCI-H522
NCI-H226 = system: NCI-H226
OVCAR-4 = system: OVCAR-4

Measured: GI50

Cc1nc2c(o1)/C(=N\c1ccccc1)c1ccccc1C2=O
inactive: SK-MEL-2 4.86 µM | SNB-19 11.5 µM | RPMI-8226 5.66 µM | SNB-75 10.9 µM | OVCAR-8 3.67 µM | SN12C 10.1 µM | KM12 15.1 µM | HOP-92 12.3 µM | K562 5.7 µM | COLO 205 15.8 µM | SF-539 5.16 µM | 786-0 15.2 µM | HT-29 18.7 µM | RXF 393 20.2 µM | NCI-H522 4.57 µM

O=C1C=C[C@@]23CC1C(O)C[C@H]2C=Cc1ccccc13 (stereo partly specified)
inactive: SK-MEL-2 > 100 µM | SNB-19 > 100 µM | RPMI-8226 > 100 µM | SNB-75 91.6 µM | OVCAR-8 > 100 µM | SN12C > 100 µM | KM12 > 100 µM | HOP-92 > 100 µM | NCI-H226 > 100 µM | K562 50.2 µM | COLO 205 > 100 µM | SF-539 > 100 µM | 786-0 > 100 µM | HT-29 > 100 µM | NCI-H522 > 100 µM | OVCAR-4 > 100 µM

O=[N+]([O-])c1cccc(C2=NOC(C3CCCCC3)C2)c1 (stereo unspecified)
inactive: SK-MEL-2 > 100 µM | SNB-75 > 100 µM | OVCAR-8 > 100 µM | SN12C > 100 µM | KM12 > 100 µM | HOP-92 > 100 µM | NCI-H226 > 100 µM | K562 > 100 µM | COLO 205 > 100 µM | SF-539 > 100 µM | 786-0 > 100 µM | HT-29 82 µM | NCI-H522 > 100 µM | OVCAR-4 > 100 µM

CC1=CCC(O)C=CC(C)C(O)C(C)C=C(C)C(=O)c2c(O)c(C)cc3c2C(=O)C(N)=C(NC(=O)/C=C\C=C/C=CC(C)C(O)CC1=O)C3=O (stereo unspecified)
inactive: SK-MEL-2 > 100 µM | SNB-19 > 100 µM | RPMI-8226 > 100 µM | SNB-75 > 100 µM | OVCAR-8 > 100 µM | SN12C > 100 µM | KM12 > 100 µM | HOP-92 > 100 µM | NCI-H226 > 100 µM | K562 > 100 µM | COLO 205 37.1 µM | SF-539 > 100 µM | 786-0 > 100 µM | HT-29 > 100 µM | NCI-H522 19.5 µM | OVCAR-4 > 100 µM

COc1cc([C@H]2c3cc4c(cc3[C@H](NCc3ccc(F)cc3)C3COC(=O)[C@H]32)OCO4)cc(OC)c1O (stereo partly specified)
inactive: SK-MEL-2 15.6 µM | SNB-19 2.44 µM | RPMI-8226 2.31 µM | SNB-75 2.08 µM | OVCAR-8 4.3 µM | SN12C 1.96 µM | KM12 3.33 µM | HOP-92 2.57 µM | NCI-H226 2.03 µM | K562 4.36 µM | COLO 205 13.6 µM | SF-539 1.79 µM | 786-0 1.84 µM | HT-29 11.2 µM | RXF 393 8.04 µM | NCI-H522 2.43 µM | OVCAR-4 37.6 µM

O=C(c1ccccc1)N1CCN2CCN=C(c3ccccc3)C21c1ccccc1 (stereo unspecified)
inactive: SK-MEL-2 > 100 µM | SNB-19 38 µM | RPMI-8226 25.5 µM | SNB-75 51.3 µM | OVCAR-8 > 100 µM | KM12 > 100 µM | HOP-92 17.1 µM | NCI-H226 19.5 µM | K562 29.1 µM | COLO 205 > 100 µM | SF-539 71.3 µM | 786-0 > 100 µM | HT-29 > 100 µM | RXF 393 45.5 µM | OVCAR-4 29.4 µM

O=P(CN1CCOCC1)(c1ccccc1)c1ccccc1
inactive: SK-MEL-2 > 100 µM | SNB-19 > 100 µM | RPMI-8226 > 100 µM | SNB-75 > 100 µM | OVCAR-8 > 100 µM | SN12C > 100 µM | KM12 > 100 µM | HOP-92 > 100 µM | K562 > 100 µM | COLO 205 > 100 µM | SF-539 > 100 µM | 786-0 > 100 µM | HT-29 > 100 µM | RXF 393 > 100 µM | NCI-H522 > 100 µM | OVCAR-4 > 100 µM

COc1ccc(N2CC(=O)N(C(=O)COc3ccc(OCC(=O)N4C(=O)CN(c5ccc(OC)cc5)C4=S)cc3)C2=S)cc1
inactive: SK-MEL-2 > 100 µM | SNB-19 > 100 µM | RPMI-8226 87.5 µM | SNB-75 > 100 µM | SN12C > 100 µM | KM12 39.1 µM | HOP-92 > 100 µM | NCI-H226 > 100 µM | K562 38.8 µM | COLO 205 > 100 µM | 786-0 > 100 µM | HT-29 57.9 µM | RXF 393 > 100 µM | NCI-H522 32.6 µM | OVCAR-4 > 100 µM

CC(C)(CN1CCCCC1)C(=O)CC(SCCN)c1ccc(Cl)cc1 (stereo unspecified)
inactive: SK-MEL-2 1.7 µM | SNB-19 1.78 µM | RPMI-8226 1.38 µM | SNB-75 1.98 µM | OVCAR-8 2.04 µM | SN12C 1.49 µM | KM12 1.88 µM | NCI-H226 3.52 µM | K562 1.18 µM | COLO 205 1.6 µM | SF-539 1.66 µM | 786-0 1.61 µM | HT-29 1.95 µM | RXF 393 1.81 µM | NCI-H522 2.18 µM | OVCAR-4 3.1 µM

CCc1cc(C(=O)OC)cn1C(=N)c1ccc(Cl)cc1
inactive: SK-MEL-2 > 100 µM | SNB-19 > 100 µM | RPMI-8226 > 100 µM | SNB-75 87.5 µM | OVCAR-8 > 100 µM | SN12C > 100 µM | KM12 > 100 µM | HOP-92 > 100 µM | NCI-H226 > 100 µM | K562 > 100 µM | COLO 205 > 100 µM | SF-539 > 100 µM | 786-0 > 100 µM | HT-29 > 100 µM | OVCAR-4 > 100 µM

O=[N+]([O-])c1ccc(Sc2c3ccccc3nc3ccccc23)cc1
inactive: SK-MEL-2 > 100 µM | SNB-19 > 100 µM | RPMI-8226 > 100 µM | SNB-75 > 100 µM | OVCAR-8 > 100 µM | SN12C > 100 µM | KM12 > 100 µM | NCI-H226 > 100 µM | K562 > 100 µM | COLO 205 > 100 µM | SF-539 > 100 µM | 786-0 > 100 µM | HT-29 > 100 µM | RXF 393 > 100 µM | NCI-H522 74.1 µM | OVCAR-4 > 100 µM

Cc1cc(N(CCC#N)CCC#N)ccc1/N=N/c1ccc(Br)cc1
inactive: SK-MEL-2 15.1 µM | SNB-19 16.1 µM | RPMI-8226 > 45.9 µM | OVCAR-8 > 37.6 µM | SN12C > 36.8 µM | KM12 > 23.8 µM | NCI-H226 25.1 µM | K562 23.8 µM | COLO 205 > 100 µM | SF-539 17.8 µM | 786-0 13.2 µM | HT-29 > 100 µM | RXF 393 8.13 µM | NCI-H522 16.6 µM | OVCAR-4 > 100 µM

COC1=C2C[C@H](O)C(C)C[C@@]2(OC)OC1=O (stereo partly specified)
inactive: SK-MEL-2 > 100 µM | SNB-19 > 100 µM | RPMI-8226 > 100 µM | SNB-75 > 100 µM | SN12C > 100 µM | KM12 > 100 µM | HOP-92 > 100 µM | K562 > 100 µM | COLO 205 > 100 µM | SF-539 > 100 µM | 786-0 > 100 µM | HT-29 > 100 µM | RXF 393 > 100 µM | NCI-H522 > 100 µM | OVCAR-4 > 100 µM
